Laboratory results reported in US20090247559A1 (Exelixis, Inc., priority 2007, published 2009).
Counter-ions that a name gives are not always drawn. Like-named read-outs stand apart in the source and are kept apart here.

Columns and labels:
CDC7 = CDC7 (Homo sapiens, UniProt O00311); test: CDC7 inhibition, biochemical chemiluminescence assay (Kinase Glo, IC50 determination)
Summary of the method: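 CDC7 enzyme preincubated with compound 10 min at ambient temperature, then ATP mix in Tris Base added; reaction 90 min at 24-27 °C. Remaining ATP quantified by Kinase Glo luminescence to give IC50.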

[1] = target: PIM (PIM-1, PIM-2, and/or PIM-3); test: PIM-1, PIM-2 and PIM-3 inhibition, biochemical chemiluminescence assays (Kinase Glo, IC50 determination); conditions: Table 1 activity class; PIM refers to PIM-1, PIM-2, and/or PIM-3; read-out: PIM IC50 (Activity B)
CK2 = CK2 (Homo sapiens, UniProt P68400); test: CK2 inhibition, biochemical chemiluminescence holoenzyme assay (Kinase Glo, IC50 determination); conditions: Table 1 activity class; symbol given only if active; read-out: CK2 IC50 (Activity C)
Summary of the method: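 Holoenzyme CK2 assay; compounds pre-incubated with substrate and enzyme, then reacted 150 min at 24-27° C. Remaining ATP measured as luminescence with Kinase Glo, and IC50 derived from the signal.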

[2] = Table 1 activity class, symbol given only if active, read-out: CDC7 IC50 (Activity A)
[3] = compounds in Table 1, read-out: CDC7 IC50 value

CK2, sequence (P68400 whole entry): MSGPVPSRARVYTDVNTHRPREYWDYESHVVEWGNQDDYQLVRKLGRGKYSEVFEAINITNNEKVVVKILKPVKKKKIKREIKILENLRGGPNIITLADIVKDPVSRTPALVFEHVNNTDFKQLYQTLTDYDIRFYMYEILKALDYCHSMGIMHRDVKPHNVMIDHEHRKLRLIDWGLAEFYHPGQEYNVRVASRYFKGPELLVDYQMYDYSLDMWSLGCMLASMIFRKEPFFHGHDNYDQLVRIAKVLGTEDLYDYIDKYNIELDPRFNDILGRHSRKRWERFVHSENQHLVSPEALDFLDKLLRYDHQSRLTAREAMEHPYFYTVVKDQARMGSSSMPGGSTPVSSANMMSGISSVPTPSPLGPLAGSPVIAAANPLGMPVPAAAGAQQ
CK2, sequence (P67870 whole entry partner): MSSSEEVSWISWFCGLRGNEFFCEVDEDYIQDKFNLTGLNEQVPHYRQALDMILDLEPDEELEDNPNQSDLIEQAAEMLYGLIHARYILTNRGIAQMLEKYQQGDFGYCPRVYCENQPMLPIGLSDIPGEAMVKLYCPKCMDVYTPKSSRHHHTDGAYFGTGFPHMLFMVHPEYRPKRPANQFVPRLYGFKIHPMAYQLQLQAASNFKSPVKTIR
CDC7, sequence (O00311 whole entry): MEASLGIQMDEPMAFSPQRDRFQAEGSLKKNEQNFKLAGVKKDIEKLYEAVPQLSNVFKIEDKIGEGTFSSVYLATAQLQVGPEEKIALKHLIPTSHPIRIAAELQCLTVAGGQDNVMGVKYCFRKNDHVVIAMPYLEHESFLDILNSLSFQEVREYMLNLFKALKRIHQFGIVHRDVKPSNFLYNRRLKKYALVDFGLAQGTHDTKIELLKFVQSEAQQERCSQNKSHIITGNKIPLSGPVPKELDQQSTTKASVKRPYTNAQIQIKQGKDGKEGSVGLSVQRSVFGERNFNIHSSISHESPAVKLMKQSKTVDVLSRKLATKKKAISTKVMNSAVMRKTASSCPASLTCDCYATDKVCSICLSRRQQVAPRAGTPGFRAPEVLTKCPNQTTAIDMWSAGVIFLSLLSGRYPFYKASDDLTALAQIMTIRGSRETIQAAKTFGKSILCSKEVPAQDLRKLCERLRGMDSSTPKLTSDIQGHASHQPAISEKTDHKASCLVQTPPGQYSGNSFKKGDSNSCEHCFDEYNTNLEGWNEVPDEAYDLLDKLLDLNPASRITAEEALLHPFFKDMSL
CDC7, sequence (Q9UBU7 whole entry partner): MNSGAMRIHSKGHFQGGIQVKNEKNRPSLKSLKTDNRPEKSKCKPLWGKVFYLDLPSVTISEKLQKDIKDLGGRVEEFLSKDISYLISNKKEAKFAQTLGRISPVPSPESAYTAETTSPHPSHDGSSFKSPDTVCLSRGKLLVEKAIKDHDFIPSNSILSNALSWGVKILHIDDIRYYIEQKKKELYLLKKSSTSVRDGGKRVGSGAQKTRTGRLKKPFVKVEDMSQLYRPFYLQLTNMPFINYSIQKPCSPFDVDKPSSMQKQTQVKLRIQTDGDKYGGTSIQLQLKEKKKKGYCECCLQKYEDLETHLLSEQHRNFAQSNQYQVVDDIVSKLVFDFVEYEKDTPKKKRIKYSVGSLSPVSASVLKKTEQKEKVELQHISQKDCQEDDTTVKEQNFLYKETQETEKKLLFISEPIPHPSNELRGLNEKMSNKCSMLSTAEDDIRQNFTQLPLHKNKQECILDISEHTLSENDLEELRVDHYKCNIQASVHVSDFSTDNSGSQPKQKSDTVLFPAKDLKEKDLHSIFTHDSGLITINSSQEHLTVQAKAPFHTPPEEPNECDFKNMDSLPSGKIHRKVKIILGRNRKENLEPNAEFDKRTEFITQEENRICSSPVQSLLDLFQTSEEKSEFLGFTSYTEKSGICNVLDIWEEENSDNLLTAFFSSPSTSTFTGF

| Compound | IC50 (CDC7; [2]) [µM] | IC50 [1] [µM] | IC50 (CK2) [µM] | IC50 (CDC7; [3]) [µM] |
| --- | --- | --- | --- | --- |
| O=c1[nH]c([C@@H]2CSCN2)nc2c1oc1ccc(Br)cc12 [Compound 500, 8-bromo-2-[(4R)-1,3-thiazolidin-4-yl][1]benzofuro[3,2-d]pyrimidin-4(3H)-one] | < 10 | < 10 | < 10 | – |
| CN1CCC[C@H]1c1nc2c(oc3ccc(Br)cc32)c(=O)[nH]1 [Compound 527, 8-Bromo-2-[(2S)-1-methylpyrrolidin-2-yl][1]benzofuro[3,2-d]pyrimidin-4(3H)-one hydrochloride] | < 10 | < 10 | < 10 | < 0.1 |
| O=c1[nH]c([C@@H]2C=CCN2)nc2c1oc1ccc(Br)cc12 [Compound 505, 8-bromo-2-[(2S)-2,5-dihydro-1H-pyrrol-2-yl][1]benzofuro[3,2-d]pyrimidin-4(3H)-one] | < 10 | < 10 | < 10 | < 0.1 |
| O=c1[nH]c(-c2cccc3c2CCNC3)nc2c1oc1ccc(Br)cc12 [Compound 375, 8-Bromo-2-(1,2,3,4-tetrahydroisoquinolin-5-yl)[1]benzofuro[3,2-d]pyrimidin-4(3H)-one] | < 10 | < 10 | < 10 | < 0.1 |
| O=c1[nH]c([C@H]2CCCN2)nc2c1oc1ccc(Br)cc12 [Compound 471, 8-bromo-2-[(2R)-pyrrolidin-2-yl][1]benzofuro[3,2-d]pyrimidin-4(3H)-one] | < 10 | < 10 | < 10 | < 0.1 |
| CCC(C)N(C)Cc1nc2c(oc3ccc(Br)cc32)c(=O)[nH]1 (stereo not drawn) [Compound 518, 8-bromo-2-{[methyl(1-methylpropyl)amino]methyl}[1]benzofuro[3,2-d]pyrimidin-4(3H)-one] | < 10 | < 10 | < 10 | < 0.1 |
| CN1CCCC1c1nc2c(oc3ccc(Br)cc32)c(=O)[nH]1 (stereo not drawn) [Compound 273, 8-Bromo-2-(1-methylpyrrolidin-2-yl)[1]benzofuro[3,2-d]pyrimidin-4(3H)-one] | < 10 | < 10 | < 10 | < 0.1 |
| O=c1[nH]c(C2CCCCN2)nc2c1oc1ccc(Br)cc12 (stereo not drawn) [Compound 534, 8-Bromo-2-piperidin-2-yl[1]benzofuro[3,2-d]pyrimidin-4(3H)-one hydrochloride] | < 10 | < 10 | < 10 | < 0.1 |
| NC1CCC(c2nc3c(oc4ccc(Br)cc43)c(=O)[nH]2)CC1 (stereo not drawn) [Compound 223, 2-(4-Aminocyclohexyl)-8-bromo[1]benzofuro[3,2-d]pyrimidin-4(3H)-one] | < 10 | < 10 | < 10 | < 0.1 |
| CC(C)NCc1ccc(-c2nc3c(oc4ccc(Br)cc43)c(=O)[nH]2)c(Cl)c1 [Compound 430, 8-bromo-2-(2-chloro-4-{[(1-methylethyl)amino]methyl}phenyl)[1]benzofuro[3,2-d]pyrimidin-4(3H)-one] | < 10 | < 10 | < 10 | – |
| O=c1[nH]c(-c2cnccc2Cl)nc2c1oc1ccc(Br)cc12 [Compound 148, 8-bromo-2-(4-chloropyridin-3-yl)[1]benzofuro[3,2-d]pyrimidin-4(3H)-one] | < 10 | < 10 | < 10 | – |
| CN1CCN(Cc2nc3c(oc4cc(O)c(Br)cc43)c(=O)[nH]2)CC1 [Compound 438, 8-bromo-7-hydroxy-2-[(4-methylpiperazin-1-yl)methyl][1]benzofuro[3,2-d]pyrimidin-4(3H)-one] | < 10 | < 10 | < 10 | – |
| CO[C@H]1CCN(Cc2nc3c(oc4ccc(Br)cc43)c(=O)[nH]2)C1 [Compound 369, 8-bromo-2-{[(3S)-3-(methyloxy)pyrrolidin-1-yl]methyl}[1]benzofuro[3,2-d]pyrimidin-4(3H)-one] | < 10 | < 10 | < 10 | < 0.1 |
